Measured values published in ChEMBL document CHEMBL4190267, “Discovery of potent molecular chimera (CM358) to treat human metastatic melanoma” (Eur J Med Chem, 2017).
Activity calls are given as the source filed them. The calls are words filed in the database; no cut-off is given here.

Experiments:
WM 266-4 [1] = assay: Induction of apoptosis in human WM266.4 cells assessed as necrotic cells at 10 uM after 24 hrs by Annexin V-FITC/propidium iodide staining based flow cytometry (reference value: 1.22%); type: functional
WM 266-4 [2] = assay: Induction of apoptosis in human WM266.4 cells assessed as late apoptotic cells at 10 uM after 24 hrs by Annexin V-FITC/propidium iodide staining based flow cytometry (reference value: 1.41%); type: functional
WM 266-4 [3] = assay: (§1) Antitumor activity against human WM266.4 cells xenografted in athymic Foxn1 nu mouse assessed as increase in 50% survival of mouse at 10 mg/kg, ip administered once daily for 7 days followed by resting period of 2 days repeated for 4 weeks starting from 5 days post tumor inoculation relative to control; type: functional
WM 266-4 [4] = assay: Induction of apoptosis in human WM266.4 cells assessed as early apoptotic cells at 25 uM after 8 hrs by Annexin V-FITC/propidium iodide staining based flow cytometry (reference value: 2.64%); type: functional
WM 266-4 [5] = assay: Induction of apoptosis in human WM266.4 cells assessed as late apoptotic cells at 25 uM after 2 hrs by Annexin V-FITC/propidium iodide staining based flow cytometry (reference value: 1.41%); type: functional
WM 266-4 [6] = assay: Induction of apoptosis in human WM266.4 cells assessed as live cells at 10 uM after 2 hrs by Annexin V-FITC/propidium iodide staining based flow cytometry (reference value: 94.7%); type: functional
WM 266-4 [7] = assay: Cell cycle arrest in human WM266.4 cells assessed as accumulation at G1 phase at 10 uM after 2 hrs by propidium iodide staining based flow cytometry (reference value: 59%); type: functional
WM 266-4 [8] = assay: as §1, with “as tumor growth inhibition” for “as increase in 50% survival of mouse”, “for 3” for “for 7”, “of 4” for “of 2”, “inoculation measured on day 21” for “inoculation”; type: functional; settings: WM 266-4, ip, read-out: TGI
WM 266-4 [9] = assay: Induction of apoptosis in human WM266.4 cells assessed as necrotic cells at 10 uM after 8 hrs by Annexin V-FITC/propidium iodide staining based flow cytometry (reference value: 1.22%); type: functional
WM 266-4 [10] = assay: Induction of apoptosis in human WM266.4 cells assessed as necrotic cells at 10 uM after 2 hrs by Annexin V-FITC/propidium iodide staining based flow cytometry (reference value: 1.22%); type: functional
WM 266-4 [11] = assay: Induction of apoptosis in human WM266.4 cells assessed as necrotic cells at 25 uM after 8 hrs by Annexin V-FITC/propidium iodide staining based flow cytometry (reference value: 1.22%); type: functional
[12] = Half life in human WM266.4 cells by LC-MS analysis; type: ADME, cell-based, WM 266-4
WM 266-4 [13] = assay: Cell cycle arrest in human WM266.4 cells assessed as accumulation at G1 phase at 10 uM after 8 hrs by propidium iodide staining based flow cytometry (reference value: 59%); type: functional
WM 266-4 [14] = assay: Cell cycle arrest in human WM266.4 cells assessed as accumulation at G2 phase at 10 uM after 8 hrs by propidium iodide staining based flow cytometry (reference value: 11%); type: functional
WM 266-4 [15] = assay: Induction of apoptosis in human WM266.4 cells assessed as early apoptotic cells at 10 uM after 8 hrs by Annexin V-FITC/propidium iodide staining based flow cytometry (reference value: 2.64%); type: functional
WM 266-4 [16] = assay: Cell cycle arrest in human WM266.4 cells assessed as accumulation at S phase at 10 uM after 2 hrs by propidium iodide staining based flow cytometry (reference value: 27%); type: functional
NCI-H1299 = assay: Growth inhibition of human NCI-H1299 cells preincubated for 6 hrs followed compound washout measured after 24 hrs by XTT assay; type: functional
WM 266-4 [17] = assay: Induction of apoptosis in human WM266.4 cells assessed as late apoptotic cells at 10 uM after 2 hrs by Annexin V-FITC/propidium iodide staining based flow cytometry (reference value: 1.41%); type: functional
[18] = target: DNA topoisomerase 2-alpha (Homo sapiens) (UniProt P11388); assay: Inhibition of human topoisomerase-2alpha assessed as reduction in enzyme-mediated decatenation at 100 uM using kinetoplast DNA as substrate after 25 mins by ethidium bromide staining based agarose gel electrophoresis method
Sequence of DNA topoisomerase 2-alpha (Homo sapiens) (P11388 whole entry): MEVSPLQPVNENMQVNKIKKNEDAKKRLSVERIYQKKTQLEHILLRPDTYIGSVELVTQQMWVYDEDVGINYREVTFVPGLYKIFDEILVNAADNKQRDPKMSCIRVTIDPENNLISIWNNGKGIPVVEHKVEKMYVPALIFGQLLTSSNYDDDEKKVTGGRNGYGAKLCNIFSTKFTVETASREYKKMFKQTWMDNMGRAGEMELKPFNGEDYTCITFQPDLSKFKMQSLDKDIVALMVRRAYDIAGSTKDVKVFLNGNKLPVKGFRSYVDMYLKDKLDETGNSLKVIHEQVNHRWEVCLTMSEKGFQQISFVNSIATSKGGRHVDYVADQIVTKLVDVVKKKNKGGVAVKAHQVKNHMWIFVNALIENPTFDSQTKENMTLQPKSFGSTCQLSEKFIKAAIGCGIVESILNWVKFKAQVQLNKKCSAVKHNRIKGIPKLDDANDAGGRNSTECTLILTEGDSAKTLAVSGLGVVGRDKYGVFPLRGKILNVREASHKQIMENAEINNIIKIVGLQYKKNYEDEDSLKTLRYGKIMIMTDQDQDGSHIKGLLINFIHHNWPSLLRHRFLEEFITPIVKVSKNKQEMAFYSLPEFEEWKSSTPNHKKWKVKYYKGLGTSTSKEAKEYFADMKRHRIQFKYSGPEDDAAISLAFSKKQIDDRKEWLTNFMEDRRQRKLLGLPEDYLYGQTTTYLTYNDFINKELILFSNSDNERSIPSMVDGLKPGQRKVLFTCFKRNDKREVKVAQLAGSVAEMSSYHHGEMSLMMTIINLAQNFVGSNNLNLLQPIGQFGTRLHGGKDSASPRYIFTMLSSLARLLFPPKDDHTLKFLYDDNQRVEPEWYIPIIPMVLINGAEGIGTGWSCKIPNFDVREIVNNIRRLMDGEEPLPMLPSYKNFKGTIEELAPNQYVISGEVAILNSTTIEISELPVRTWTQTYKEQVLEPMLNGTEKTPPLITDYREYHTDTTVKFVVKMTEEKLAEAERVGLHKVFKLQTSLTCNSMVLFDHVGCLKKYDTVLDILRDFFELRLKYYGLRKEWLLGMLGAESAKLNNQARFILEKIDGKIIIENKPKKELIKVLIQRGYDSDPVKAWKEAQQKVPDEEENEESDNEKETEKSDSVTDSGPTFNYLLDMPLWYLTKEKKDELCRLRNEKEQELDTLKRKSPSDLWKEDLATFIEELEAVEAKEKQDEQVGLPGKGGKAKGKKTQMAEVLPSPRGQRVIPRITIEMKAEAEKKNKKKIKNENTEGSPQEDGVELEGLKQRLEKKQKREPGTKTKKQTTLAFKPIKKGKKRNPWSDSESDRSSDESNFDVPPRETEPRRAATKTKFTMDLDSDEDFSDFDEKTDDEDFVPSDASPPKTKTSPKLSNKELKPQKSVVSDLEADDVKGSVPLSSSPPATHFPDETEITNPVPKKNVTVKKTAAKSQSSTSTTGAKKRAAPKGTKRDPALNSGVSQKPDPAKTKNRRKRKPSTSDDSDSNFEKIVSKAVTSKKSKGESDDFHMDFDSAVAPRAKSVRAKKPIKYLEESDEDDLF

WM 266-4 [19] = assay: Growth inhibition of human WM266.4 cells preincubated for 6 hrs followed compound washout measured after 24 hrs by XTT assay; type: functional
[20] = target: DNA topoisomerase 2-alpha (Homo sapiens) (UniProt P11388); assay: Inhibition of human topoisomerase-2alpha assessed as reduction in enzyme-mediated decatenation at 25 uM using kinetoplast DNA as substrate after 25 mins by ethidium bromide staining based agarose gel electrophoresis method
WM 266-4 [21] = assay: Induction of apoptosis in human WM266.4 cells assessed as early apoptotic cells at 25 uM after 2 hrs by Annexin V-FITC/propidium iodide staining based flow cytometry (reference value: 2.64%); type: functional
WM 266-4 [22] = assay: Induction of necrosis in human WM266.4 cells at 5 to 25 uM after 16 hrs by Annexin V-FITC/propidium iodide staining based fluorescence microscopic method; type: functional, cell-based
WM 266-4 [23] = assay: Cell cycle arrest in human WM266.4 cells assessed as accumulation at G2 phase at 10 uM after 24 hrs by propidium iodide staining based flow cytometry (reference value: 11%); type: functional

## CN(C)CCN1C(=O)c2cccc3cc(NC(=O)CCCc4ccc(N(CCCl)CCCl)cc4)cc(c23)C1=O.O=C(O)C(F)(F)F
WM 266-4 [1]
  Activity: 10.3%
WM 266-4 [2]
  Activity: 1.29%
WM 266-4 [3]
  Activity: 24%
WM 266-4 [4]
  Activity: 5.46%
WM 266-4 [5]
  Activity: 3.94%
WM 266-4 [6]
  Activity: 86.9%
WM 266-4 [7]
  Activity: 39%
WM 266-4 [8]
  inhibition in vivo at 10 mg/kg: 40%
WM 266-4 [9]
  Activity: 9.33%
WM 266-4 [10]
  Activity: 6.58%
WM 266-4 [11]
  Activity: 27.9%
[12]
  half-life: 25 h
WM 266-4 [13]
  Activity: 35%
WM 266-4 [14]
  Activity: 17%
WM 266-4 [15]
  Activity: 6.66%
WM 266-4 [16]
  Activity: 45%
NCI-H1299
  GI50: 6.8 µM
WM 266-4 [17]
  Activity: 1.46%
[18]
  inhibition: Active
WM 266-4 [19]
  GI50: 8.8 µM
[20]
  inhibition: Active
WM 266-4 [21]
  Activity: 6.79%
WM 266-4 [22]
  Activity: Active
WM 266-4 [23]
  Activity: 24%
